# Experimental data as given in patent US8685726B2, “Small molecules supporting pluripotent cell growth and methods thereof” (Viacyte, Inc., priority 2009, dated 2014).
# Counter-ions that a name gives are not always drawn.
# Test system: hES cells
# Assay: Alkaline phosphatase staining screen of LOPAC1280 library (primary screen and secondary dose titration)
# Type: cell-based, human
# Settings: Homo sapiens; secondary screen, dilution series, 48 hours with compound, AP staining, StemPro hESC SFM, 96-well; read-out: [Concentration] minimal effective concentration negatively impacting hES cell cultures
# Experimental: FIG. 1. Representation of antagonists/modulators of neurotransmitter/hormone receptors identified by compound screening in hES cells. […] Receptor antagonists identified in the primary screen are shown (left column). The screen was performed using compounds at 10 μM. The secondary dose titration assay is shown (50-0.1 μM columns), and receptor class targeted by each compound and action is indicated.
# Applying this approach in 96- and 384-well plates, quantitative and statistically significant cell-counting data was generated confirming the effect of AG825, an inhibitor of ERBB2 signaling, on self-renewal. About 3×10^4 hES cells per well were plated on MATRIGEL™ in StemPro® hESC SFM in 96-well plates and cultured for about 24 hours. The media was then changed, with new media containing 10 μM of a compound from the LOPAC1280 library (partial list in Table 1), and the cultures incubated for an additional 48 hours. The cultures were then fixed and stained for endogenous alkaline phosphatase, a marker of undifferentiated hES cells, activity.
# The LOPAC1280 collection (Sigma Cat# LO1280), a library of small organic molecules with well-characterized pharmacological activities, was screened using the above described alkaline phosphatase detection assay in 96-well plates (16 plates total). Each 96-well assay was performed with 80 compounds (1 compound per well) and 16 wells as DMSO carrier negative controls. Greater than about 50 compounds were identified in the primary screen as impacting hES cell growth & expansion, which was then further determined to be a group of 38 molecules (Table 1) after secondary screening, and when known generally cytotoxic molecules were excluded (for example, 5-Azacytidine). Pathways that are likely to be impacted by these molecules, and therefore possibly important in hES cells, included those involving signalling by NFκB, eNOS, RAR(a), calcium channels, tachykinin signaling, guanylyl cyclase, Src and Jak2.
# Secondary screening was performed using the same assay, but with a dilution series of 0.1-50 μM of a compound as compared to the 10 μM initially used. The minimal effective concentration for each compound is indicated (Table 1). […] While a role for GABA signaling in hES cell self-renewal has been highlighted previously (Ludwig et al., 2006), it has not been examined under other defined media conditions. Potential roles for other neurotransmitters in undifferentiated pluripotent stem cells have not been characterized.
row,Compound,minimal effective concentration [µM]
1,CNc1ccc2oc(C[C@H]3O[C@@]4(CC[C@H]3C)O[C@H]([C@H](C)C(=O)c3ccc[nH]3)[C@H](C)C[C@H]4C)nc2c1C(=O)O [Calcimycin],1
2,Cc1nc(-c2ccc(-c3ccc(C(=O)N4CCc5cc6c(cc54)C4(CCN(C)CC4)CO6)cc3)c(C)c2)no1 [SB 224289 hydrochloride],25
3,CC(C)(C)c1ccc(C(O)CCCN2CCC(C(O)(c3ccccc3)c3ccccc3)CC2)cc1 (stereo not shown) [Terfenadine],25
4,c1ccc2c(c1)[I+]c1ccccc1-2 [Diphenyleneiodonium chloride],0.1
5,O=C(/C=C/c1ccc(O)c(O)c1)OCCc1ccccc1 [Caffeic acid phenethyl ester],< 0.1
6,CC[N+](CC)(CC)CCOc1ccc(/C=C/c2ccccc2)cc1 [MG 624],0.1
7,Oc1cc2c(cc1O)CN(C(=S)NCCc1ccc(Cl)cc1)CCC2 [Capsazepine],5
8,O=c1[nH]c2ccccc2n1CCCN1CCC(n2c(=O)[nH]c3cc(Cl)ccc32)CC1 [Domperidone],25
9,Cc1cc(N)c2ccccc2[n+]1CCCCCCCCCC[n+]1c(C)cc(N)c2ccccc21 [Dequalinium chloride hydrate],5
10,N=C(N)c1ccc(OCCCCCOc2ccc(C(=N)N)cc2)cc1 [Pentamidine isethionate],1
11,CC1(C)CCC2=C(O1)c1ccccc1C(=O)C2=O [beta-Lapachone],5
12,C=CC1=C(C)c2cc3[nH]c(cc4nc(cc5[nH]c(cc1n2)c(C)c5CCC(=O)O)C(CCC(=O)O)=C4C)c(C)c3C=C [Protoporphyrin IX disodium],10
13,CN(C)S(=O)(=O)c1ccc2c(c1)/C(=C/c1cc3c([nH]1)CCCC3)C(=O)N2 [SU 6656],25
14,CCCCCCCC/C=C\CCCCCCCC(=O)NCCc1ccc(O)c(O)c1 [N-Oleoyldopamine],5
15,Clc1ccc(C(c2ccc(Cl)cc2)n2cc[n+](CC(OCc3ccc(Cl)cc3Cl)c3ccc(Cl)cc3Cl)c2)cc1 (stereo not shown) [Calmidazolium chloride],5
16,CCN(CC)CCCC(C)Nc1c2ccc(Cl)cc2nc2ccc(OC)cc12 (stereo not shown) [Quinacrine dihydrochloride],10
17,CC(Cc1ccc(O)c(O)c1)C(C)Cc1ccc(O)c(O)c1 (stereo not shown) [Nordihydroguaiaretic acid],5
18,C/C=C(/C)C(=O)O[C@H]1C(C)=C2[C@H]([C@@H]1OC(=O)CCCCCCC)[C@@](C)(OC(C)=O)C[C@H](OC(=O)CCC)[C@@]1(O)[C@H]2OC(=O)[C@@]1(C)O [Thapsigargin],< 0.1
19,"Oc1cc(-c2ccccc2)nc2nc(Cl)ccc12 [7-Chloro-4-hydroxy-2-phenyl-1,8-naphthyridine]",5
20,COc1cc([C@@H]2c3cc4c(cc3[C@H](O)[C@H]3COC(=O)[C@H]23)OCO4)cc(OC)c1OC [Podophyllotoxin],< 0.1
21,C[C@@H]1O[C@@H](O[C@H]2C[C@@H](O)[C@]3(CO)[C@H]4[C@H](O)C[C@]5(C)[C@@H](C6=CC(=O)OC6)CC[C@]5(O)[C@@H]4CC[C@]3(O)C2)[C@H](O)[C@H](O)[C@H]1O [Ouabain],< 0.1
22,COc1ccc(CCCOC(Cn2ccnc2)c2ccc(OC)cc2)cc1 (stereo not shown) [SKF 96365],25
23,COCC(=O)O[C@]1(CCN(C)CCCc2nc3ccccc3[nH]2)CCc2cc(F)ccc2[C@@H]1C(C)C [Mibefradil dihydrochloride],25
24,COC(=O)C1=C(C)NC(C)=C(C(=O)OC(C)(C)CN(C)CCC(c2ccccc2)c2ccccc2)C1c1cccc([N+](=O)[O-])c1 (stereo not shown) [Lercanidipine hydrochloride hemihydrate],10

# Same assay, conditions: secondary screen, dilution series, 48 hours with compound, AP staining, StemPro hESC SFM, 96-well; read-out: [Concentration] minimal effective concentration negatively impacting hES cell cultures
row,Compound,minimal effective concentration [µM]
1,CC(C)[C@H]1c2ccc(F)cc2CC[C@@]1(CCN(C)CCCc1nc2ccccc2[nH]1)OC(=O)C1CC1 [NNC 55-0396],25
2,N#C/C(=C\c1ccc(O)c(O)c1)C(=O)NCc1ccccc1 [Tyrphostin AG 490],25
3,C[C@@H]1O[C@@H](O[C@H]2C[C@@H](O)[C@]3(CO)[C@H]4[C@H](O)C[C@]5(C)[C@@H]([C@@H]6COC(=O)C6)CC[C@]5(O)[C@@H]4CC[C@]3(O)C2)[C@H](O)[C@H](O)[C@H]1O [Dihydroouabain],1
4,CNC(=O)[C@H]1O[C@@H](n2cnc3c(NCc4cccc(I)c4)ncnc32)[C@H](O)[C@@H]1O [IB-MECA],50
5,CC[n+]1c(/C=C/C=C2/N(C)c3ccccc3C2(C)C)sc2ccccc21.[I-] [AC-93253 iodide],5
6,Vinblastine sulfate salt,<0.1
7,C[C@H]1CCC/C=C/[C@@H]2C[C@H](O)C[C@H]2[C@H](O)/C=C/C(=O)O1 [Brefeldin A],<0.1
8,CC1=C(/C=C/C(C)=C/C=C/C(C)=C/C(=O)Nc2ccc(O)cc2)C(C)(C)CCC1 [Retinoic acid p-hydroxyanilide],1
9,COc1cc2c(cc1O)CC[C@@H]1[C@@H]2CC[C@]2(C)[C@@H](O)CC[C@@H]12 [2-methoxyestradiol],10
10,"Ic1ccccc1CNC1C2CCN(CC2)C1C(c1ccccc1)c1ccccc1.O=C(O)C(=O)O [L-703,606 oxalate]",25
11,Ivermectin,5
12,Nc1ccc(CCN2CCN(c3cccc(C(F)(F)F)c3)CC2)cc1 [PAPP],25
13,N.S=C(S)N1CCCC1 [Ammonium pyrrolidinedithiocarbamate],10

# Test system: hES cells
# Assay: Low-density real-time cell index monitoring (RT-CES impedance reader)
# Type: cell-based, human
# Settings: 50 μM (NE, ACh, Adenosine, GABA) or 10 μM (Y27632), 1000 cells/well, 5 days
# Experimental: FIG. 4. Titration of NE and ACh using the RT-CES impedance reader. 1000 hES cells/well were plated in StemPro® hESC SFM containing the indicated concentrations of small molecules (in μM). In such an assay, the timing of when the cell index rises is associated with the proportion of cells that survive and expand at low density.
# FIG. 5. Combined effects of small molecules compound combinations in low cell density assays. (A) 1000 hES cells/well were plated in StemPro® hESC SFM containing small molecules at 50 μM (NE, ACh, Adenosine, GABA) or 10 μM (Y27632). The assay was carried out over 5 days using the RT-CES system.
# FIG. 6. […] 1000 hES cells/well were plated in StemPro® hESC SFM containing Heregulin, IGF1 and Activin (HIA) and the indicated small molecules. […] Compounds were tested at 10 μM. The DMSO trace is an average of 8 wells. […] Compounds were tested at the indicated concentrations.
# FIG. 7. […] 1000 hES cells/well were plated in StemPro® hESC SFM containing the indicated combinations of growth factors and small molecules. Heregulin (H), LR3-IGF1 (I), Activin (A).
# FIG. 9. Low-density RT-CES assays of combinations of growth factors and neurotransmitters. 1000 hES cells/well were plated in StemPro® hESC SFM containing the indicated combinations of growth factors and small molecules. Heregulin (H), LR3-IGF1 (I), Activin (A). Small molecules were tested at 50 μM.
# Furthermore, pluripotent cells can also be grown in 96-well culture devices that provide real-time measurements of impedance, which can be used to measure cell proliferation and viability using the RT-CES™ methods from ACEA Biosciences, Inc. (www (dot) aceabio (dot) com). Such an approach would enable a label-free identification and quantification of subtle or immediate effects on differentiable cells, as well as measurements of proliferation, apoptosis and changes to morphology, in real time.
# To examine more closely the potency of individual neurotransmitters and determine if synergies exist between different factors, low-density assays were performed in real time using an impedance reader. The ACEA biosciences RT-CES system uses 96-well trays that contain embedded microsensors to monitor changes in electrical impedance, which is translated into a measure of cell index. Any overt alteration within a cell culture can be detected, including but not limited to cell proliferation, migration, cell spreading, apoptosis, differentiation and the like. […] Once an undifferentiated culture becomes confluent the cell index remains high, but tends to go down and up (scallop) between daily feedings. Conversely, differentiation is typically indicated by the appearance of distinctive patterns, such as peaks and troughs in the cell index, likely indicative of an epithelial-to-mesenchymal transition, flattening, cell migration, apoptosis or similar differentiation and growth related changes.
# Human ES cells were plated at low density, 1000 cells/well, in RT-CES trays and cultured for 10 days (FIG. 4). Cells were plated directly in StemPro® hESC SFM containing carrier control (DMSO), NE, or ACh.
row,Compound,"survival and expansion at low density, single factors and two-factor combinations"
1,NCCCC(=O)O [GABA],less effective

# Same assay, conditions: 50 μM each factor, 1000 cells/well, StemPro hESC SFM
row,Compound,time after plating at which cell index rises above background / expansion detectable [days]
1,NCCCC(=O)O [GABA],~4.5

# Same assay, conditions: 1000 cells/well, StemPro hESC SFM
row,Compound,low cell density survival with a single growth factor
1,heregulin,did not support low cell density survival

# Same assay, conditions: 1000 cells/well, StemPro hESC SFM HIA, low-density impedance assay
row,Compound,survival/proliferation compared to DMSO controls
1,NCCc1ccc(O)c(O)c1 [dopamine],enhanced survival/proliferation
2,NCCc1c[nH]c2ccc(O)cc12 [serotonin],enhanced survival/proliferation
3,NCCCC(=O)O [GABA],lack of robust activity
